Data taken from patent US10980798B2, “Pharmaceutical compositions of hydrophobic camptothecin derivatives” (Taiwan Liposome Company, Ltd., priority 2011, dated 2021).

Assays:
[1] = Aqueous solubility with mPEG2000-DSPE formulation; type: physicochemical; conditions: water with mPEG2000-DSPE formulation, aqueous with cosolvent or surfactant or cyclodextrin
Experimental: In addition, the aqueous solubility of […] increased to 10 mg/mL with mPEG2000-DSPE formulation.

[2] = stated as known; cited from earlier work
[3] = test system: erythroid Colony Forming Cells (CFCs); test: Bone marrow suppression evaluation, colony assay, erythroid progenitors; type: cell-based; conditions: human bone marrow progenitors, methylcellulose colony assay, 14-16 days
Experimental: (§1) An in vitro evaluation of the effect of the pharmaceutical compositions on human bone marrow cells was performed.
(§2) Protocol: Clonogenic progenitors of the erythroid (CFU-E, BFU-E), granulocyte-monocyte (CFU-GM) and multipotential lineages (CFU-GEMM) were set up in methylcellulose-based medium (R&D Systems) containing recombinant rhSCF (50 ng/mL), rhIL-3 (10 ng/mL), rhGM-CSF (10 ng/mL),and rhEpo (3 U/mL).
(§3) TLC388 HCl and Topotecan were diluted in DMSO and Lipotecan® was diluted in sterile water to provide the appropriate working stock concentrations. These working stock solutions were subsequently added to the methylcellulose-based colony assay medium described above. The colony assay mediums were set up in triplicate at 2×10^4 cells per culture medium.
(§4) The replicate culture mediums were incubated at 37° C. in 5% CO2 for 14-16 days. After this time, the resultant colonies in the culture medium were evaluated by a senior scientist in term of size and morphology.

Huh-7 = test: SRB cytotoxicity assay, Huh-7; type: cell-based; conditions: Homo sapiens
Text: (§5) Human hepatoma cell lines Hep3B, HepG2, HepG2/2.2.15, Huh-7 and Sk-Hep-1, human glioblastoma cell line RG-2, and human prostate cancer cell line DU145 were maintained in DMEM (HyClone Laboratories, Logan, Utah, USA). Human prostate cancer cell line LNCap was maintained in RPMI-1640 culture medium (Sigma-Aldrich, St. Louis, Mo., USA). […] Human prostate cancer cell line PC-3 was maintained in the Ham's F-12K medium (Invitrogen, Carlsbad, Calif., USA) with the same medium supplements described in the culture medium except that the fetal bovine serum concentration was reduced to 7% by volume. Cancer cells were maintained at 37° C. in a humidified incubator (Nuaire, USA) containing 5% CO2.
(§6) The SRB assay was used for measuring cancer cell viability. The cancer cells in the plate wells were rinsed with 1× PBS and treated with 1× trypsin-EDTA (Invitrogen, Carlsbad, Calif.). The culture medium was added to dilute the trypsin-EDTA. The detached cancer cells were harvested by centrifugation and suspended in the 1 ml culture medium. Ten μl of the cell suspension was dispensed into counting chambers and the cell density was determined microscopically. The cells in 198 μl suspensions were seeded onto a 96-well cell plate (Nunc, Rochester, N.Y.) at the appropriate cell density per well and incubated in the cell culture incubator overnight.
(§7) We evaluated the ant-cancer activity of the following CPT derivatives pharmaceutical compositions: • 1. TLC388 HCl, a non-water soluble CPT derivative (obtained from ScinoPharm Taiwan Ltd., Taiwan); • 2. […]
(§8) At the end of the incubation period, cells were fixed by adding 50 μl of cold 50% TCA (w/v) (Sigma, St Louis, Mo., USA) to a final concentration of 10% TCA and further incubated at 4° C. for 60 minutes. […] Bound stain in each well was solubilized with 100 μl of 10 mM trizma base (Bioshop, Burlington, ON, Canada), and the absorbance was measured using an automated plate reader (Anthos 2001, Anthos Labtec Instrument) at 540 nm.
(§9) The graph and data were analyzed by SigmaPlot 10.0 software and Microsoft Excel 2002.

HCT116 = test: SRB cytotoxicity assay, HCT116 (colon cancer); type: cell-based; conditions: Homo sapiens, HCT-116; HCT116, incubation 72 h
Experimental: as §6, §7, §8, §9

LNCap = test: SRB cytotoxicity assay, LNCap; type: cell-based; conditions: Homo sapiens
Text: as §5, §6, §7, §8, §9

Sk-Hep-1 = test: SRB cytotoxicity assay, Sk-Hep-1; type: cell-based; conditions: Homo sapiens, SK-HEP1
Text: as §5, §6, §7, §8, §9

HT29 = test: SRB cytotoxicity assay, HT29 (colon cancer); type: cell-based; conditions: Homo sapiens, HT-29; HT29, incubation 72 h
Experimental: as §6, §7, §8, §9

DU145 = test: SRB cytotoxicity assay, DU145; type: cell-based; conditions: Homo sapiens, DU-145
Text: as §5, §6, §7, §8, §9

myeloid CFCs = test: Bone marrow suppression evaluation, colony assay, myeloid progenitors; type: cell-based; conditions: human bone marrow progenitors, methylcellulose colony assay, 14-16 days
Experimental: as §1, §2, §3, §4

PC-3 = test: SRB cytotoxicity assay, PC-3; type: cell-based; conditions: Homo sapiens
Text: as §5, §6, §7, §8, §9

HepG2/2.2.15 = test: SRB cytotoxicity assay, HepG2/2.2.15; type: cell-based; conditions: Homo sapiens
Text: as §5, §6, §7, §8, §9

HepG2 = test: SRB cytotoxicity assay, HepG2; type: cell-based; conditions: Homo sapiens
Text: as §5, §6, §7, §8, §9

Hep3B = test: SRB cytotoxicity assay, Hep3B; type: cell-based; conditions: Homo sapiens
Text: as §5, §6, §7, §8, §9

RG-2 = test: SRB cytotoxicity assay, RG-2 glioma cell line; type: cell-based; conditions: Homo sapiens, RG2
Text: as §5, §6, §7, §8, §9

In the case of CC[C@@]1(OC(=O)C(C)(C)ON=C2c3cc([N+](=O)[O-])cc([N+](=O)[O-])c3-c3c2cc([N+](=O)[O-])cc3[N+](=O)[O-])C(=O)OCc2c1cc1n(c2=O)Cc2cc3c(CN(C)C)c(O)ccc3nc2-1.Cl [TLC1988 HCl, (S)-10-[(dimethylamino)methyl]-4-ethyl-9-hydroxy-4-O-[2-methyl-2-(2″,4″,5″,7″-tetranitro-9″-fluorenylideneaminooxy)propionyl]-1H-pyrano[3′,4′:6,7]indolizino[1,2-b]quinoline-3,14-(4H,12H)-dione, monohydrochloride], the solubility [1] is listed as 10000 µg/mL and the “stability in an alkaline condition” value [2] is listed as “unstable in an alkaline condition”.
CC[C@@]1(O)C(=O)OCc2c1cc1n(c2=O)Cc2cc3c(CN(C)C)c(O)ccc3nc2-1 [Topotecan] showed an IC50 [3] of 0.0118 µM, an IC50 (Huh-7; Huh-7, incubation 24 h) of 65.3 µM and an IC50 (Huh-7; Huh-7, incubation 48 h) of 5.05 µM. It also gave an IC50 (Huh-7; Huh-7, incubation 72 h) of 2.8 µM, an IC50 (HCT116) of 0.008 µM and an IC50 (LNCap; incubation 24 h) of 14.9 µM. The IC50 (LNCap; incubation 48 h) was 6.15 µM, the IC50 (LNCap; incubation 72 h) was 2.59 µM and the IC50 (Sk-Hep-1; Sk-Hep-1, incubation 24 h) was 74.9 µM. The IC50 (Sk-Hep-1; Sk-Hep-1, incubation 48 h) was 12.5 µM, the IC50 (Sk-Hep-1; Sk-Hep-1, incubation 72 h) was 2.1 µM and the IC50 (HT29) was 0.038 µM. It also gave an IC50 (DU145; DU145, incubation 24 h) of 2.25 µM, an IC50 (DU145; DU145, incubation 48 h) of 0.6 µM and an IC50 (DU145; DU145, incubation 72 h) of 0.58 µM. The IC50 (myeloid CFCs) was 0.0087 µM, the IC50 (PC-3; PC-3, incubation 24 h) was 131 µM and the IC50 (PC-3; PC-3, incubation 48 h) was 18.1 µM. The IC50 (PC-3; PC-3, incubation 72 h) was 3.58 µM, the IC50 (HepG2/2.2.15; HepG2/2.2.15, incubation 24 h) was greater than 50 µM and the IC50 (HepG2/2.2.15; HepG2/2.2.15, incubation 48 h) was 63.1 µM. For the same compound, the IC50 (HepG2/2.2.15; HepG2/2.2.15, incubation 72 h) was 0.58 µM, the IC50 (HepG2; HepG2, incubation 24 h) was 57.5 µM and the IC50 (HepG2; HepG2, incubation 48 h) was 2.73 µM. The IC50 (HepG2; HepG2, incubation 72 h) was 0.686 µM, the IC50 (Hep3B; incubation 24 h) was greater than 50 µM and the IC50 (Hep3B; incubation 48 h) was 64.6 µM. For the same compound, the IC50 (Hep3B; incubation 72 h) was 0.2 µM, the IC50 (RG-2; RG-2, incubation 24 h) was 7.23 µM and the IC50 (RG-2; RG-2, incubation 48 h) was 2.78 µM. The IC50 (RG-2; RG-2, incubation 72 h) was 3 µM.
